In US4303672A, “Cyclopropanecarboxylate insecticides and/or acaricides exhibiting low toxicity to mammals and fish” (priority 1979, dated 1981):
In brackets after ≈: the same amount, converted by molar mass. Like-named read-outs stand apart in the source and are kept apart here.

Key:
[1] = Test Example 1: Test for toxicity to fishes (killifish); assay type: in vivo, killifish (Oryzias latipes); details: water; killifish, 48 hours; read-out: Toxicity to fishes TLm48 (medium tolerance limit, 48 hours)
Procedure: (§1) Toxicity to killifish (Oryzias latipes) was tested according to the test method for toxicity to fishes described in Notification B No. 2735 of the Ministry of Agriculture and Forestry (Nov. 25, 1965). Namely, each of the present compounds (1), (4), (5) and (6) was dissolved or suspended in "Tween 80" and diluted successively with dechlorinated tap water. Ten killifish (0.2-0.3 g per fish) were released in a 10-liter glass vessel containing 5 liters of each preparation.
(§2) In order to make it clearer that the present compounds have a low toxicity to fishes as well as a high insecticidal activity, a safety coefficient to fishes was calculated from the test results of toxicity to fishes and insecticidal activity. [formula]
(§3) A detailed explanation will be given as to a method of how to calculate the safety coefficient. In the case of green rice leafhoppers, calculation was based on the concentration of active ingredient in water obtained by applying a test solution containing the active ingredient in an amount corresponding to LC50 (ppm) to a flooded paddy field 5 cm deep at a rate of 100 liter/10 are, provided that all the active ingredient applied entered the water.
(§4) In this case, the coefficient is 333, which means that the present compound (1) has a 333-fold safety.

[2] = tested on: killifish (Oryzias latipes); assay: as above; assay type: in vivo; details: TLm48 killifish (a) / concentration of active ingredient in water (b) at green rice leafhopper LC50
Procedure: as §1, §2, §3, §4

[3] = tested on: green rice leafhopper (Nephotettix cincticeps); assay: Test Example 1: Test for insecticidal activity (green rice leafhopper); assay type: in vivo; details: green rice leafhopper R-strain, spray on rice plant, 26° C., 24 hours, 3 replications, read-out: LC50 (median lethal concentration)
Text: The emulsifiable concentrates of the present compounds and reference compound prepared in Preparation Example 1 were each formulated into test solutions having four different concentrations of active ingredient between 500 ppm and 0.5 ppm. Each test solution was sprayed on rice plant in a 180-ml plastic cup which had elapsed one month after sowing, at a rate of 15 cc/2 cups by means of a turn table. After air-drying, the rice plant was covered with a wire-screen cage, and 15 female adults of green rice leafhopper (Nephotettix cincticeps) (a strain resistant to carbamates and organo-phosphates, hereinafter referred to as R-strain) were liberated therein. The plant was placed in an artificial climate chamber kept at 26° C. After 24 hours, the dead and alive were examined. The median lethal concentration [LC50 (ppm)] was calculated from the mortality determined by 3 replications.
as §3, §4

[4] = tested on: carmine mites (Tetranychus cinnabarinus); assay: Test Example 4: spray test against carmine mites on rice plants; assay type: in vivo; details: 500 ppm spray, all stages, after 10 days
Procedure: The emulsifiable concentrate of each of the present compounds (1) and (6) prepared in Preparation Example 1 was diluted with water so that the concentration of the active ingredient was 500 ppm. The dilute liquor was thoroughly sprayed on rice plants (grown in a 1/10,000 are Wagner's pot) on which carmine mites (Tetranychus cinnabarinus) in all stages were made parasitic.

[5] = tested on: green rice leafhopper (Nephotettix cincticeps); assay: Test Example 6: simulated paddy field test, green rice leafhopper; assay type: in vivo; details: 100 ppm at 100 liter/10 are, after 48 hours
Procedure: (§5) The wettable powder of each of the present compounds (1), (2), (4) and (5) prepared in Preparation Example 4 was diluted with water so that the concentration of active ingredient was 100 ppm. Soil was placed in a plastic box [5 m×5 m×2 m (deep)] to a level of 50 cm from the bottom, and rice plants about 50 cm high were transplanted at intervals of 50 cm. Water was then placed in the box so that water depth was 5 cm, and 20 killifishes (Oryzias latipes) were liberated therein. Thereafter, the above dilute solution was sprayed on the box at a rate of 100 liter/10 are. The solution fell on the rice plants as well as on the water surface.
(§6) One hour after treatment, 100 female adults of green rice leafhopper (Nephotettix cincticeps) were liberated in the box which was immediately covered with a net.

[6] = tested on: killifishes (Oryzias latipes); assay: Test Example 6: simulated paddy field test, killifish; assay type: in vivo; details: 100 ppm at 100 liter/10 are, water depth 5 cm, after 48 hours
Procedure: as §5, §6

[7] = Test Example 7: Test for toxicity to fishes (fry carp); assay type: in vivo, fry carp (Cyprinus carpio); details: water, read-out: Toxicity to fishes TLm48
Procedure: as §1
Toxicity to fry carp (Cyprinus carpio) was tested according to the test method for toxicity to fishes described in Notification B No. 2735 of the Ministry of Agriculture and Forestry (Nov. 25, 1965). The comparative test was made in a manner similar to that of Test Example 1.

[8] = tested on: yellow fever mosquito (Aedes aegypti); assay type: in vivo; details: 50 mg granule in 100 cc water, full grown larvae, 24 hours
Procedure: Fifty milligrams of the granule of the present compound (1) obtained in Preparation Example 6 was placed in a 100-cc beaker containing 100 cc of distilled water, and 30 full grown larvae of yellow fever mosquito (Aedes aegypti) were liberated therein. After 24 hours, 100% of the larvae could be killed.

[9] = tested on: green rice leafhopper (Nephotettix cincticeps); assay: Test Example 5: Residual effect test (green rice leafhopper); assay type: in vivo
Procedure: The emulsifiable concentrate of the present compound (1) prepared in Preparation Example 1 was diluted with water so that the concentration of active ingredient was 400 ppm. Thereafter, 20 cc of the dilute solution was sprayed on rice plants grown in a 1/10,000 are Wagner's pot. The rice plants were air-dried and covered with a wire-screen cage, and 15 female adults of green rice leafhopper (Nephotettix cincticeps) were liberated therein. After 24 hours, the dead and alive were examined to obtain mortality. In order to examine the residual effect, the pot was then left as it was for 7 days, and the test insects were liberated in the same manner as above. After 24 hours, the mortality was examined. The experiment was carried out in a greenhouse and the number of replications was three.

Structure (SMILES) | LC50 at 48 h [1] [µg/mL] | Safety coefficient to fishes (a)/(b) [2] | LC50 [3] [µg/mL] | spreading of the damage to rice plants by carmine mites [4] | alive green rice leafhoppers found [5] | killifish survival [6] | LC50 at 48 h [7] [µg/mL] | larvae killed [8] [%] | mortality at 400 ppm ([9]; 400 ppm spray, 24 hours after liberation, greenhouse, read-out: Mortality, effect immediately after treatment) [%] | mortality at 400 ppm ([9]; 400 ppm spray, insects liberated 7 days after treatment, 24 hours, greenhouse, read-out: Mortality, effect 7 days after treatment) [%] | mortality at 400 ppm ([9]; 24 h, read-out: Mortality, effect immediately after treatment) [%] | mortality at 400 ppm ([9]; read-out: Mortality, effect 7 days after treatment) [%]
CC1(C)[C@H](C(=O)OC(C#N)c2cccc(Oc3ccc(Br)cc3)c2)[C@@H]1C(Br)C(Br)(Br)Br (stereo partly drawn) [(6), m-(p-Bromophenoxy)-α-cyanobenzyl d-cis-2,2-dimethyl-3-(1,2,2,2-tetrabromoethyl)cyclopropanecarboxylate] | > 5 | > 263 | 9.5 (≈ 12.8 µM) | the spreading of the damage could be prevented | – | – | – | – | – | – | – | –
CC1(C)[C@H](C(=O)OC(C#N)c2cccc(Oc3ccc(Br)cc3)c2)[C@H]1C(Br)C(Cl)(Cl)Br (relative stereo) [(2), m-(p-Bromophenoxy)-α-cyanobenzyl dl-trans-2,2-dimethyl-3-(1,2-dibromo-2,2-dichloroethyl)cyclopropanecarboxylate] | – | – | – | – | no alive green rice leafhoppers were found | all the killifishes were alive | > 1 | – | – | – | – | –
CC1(C)C(C(=O)OC(C#N)c2cccc(Oc3ccccc3)c2)C1C(Br)C(Cl)(Cl)Br (centres unmarked) [(A), reference compound] | 0.5 (≈ 0.868 µM) | 50 | 5 (≈ 8.68 µM) | – | – | – | 0.00395 (≈ 0.00686 µM) | – | – | – | – | –
CC1(C)[C@H](C(=O)OC(C#N)c2cccc(Oc3ccc(Br)cc3)c2)[C@H]1C(Br)C(Br)(Br)Br (stereo partly drawn) [(5), m-(p-Bromophenoxy)-α-cyanobenzyl d-trans-2,2-dimethyl-3-(1,2,2,2-tetrabromoethyl)cyclopropanecarboxylate] | > 5 | > 1667 | 1.7 (≈ 2.29 µM) | – | no alive green rice leafhoppers were found | all the killifishes were alive | – | – | – | – | – | –
CC1(C)C(C(=O)OC(C#N)c2cccc(Oc3ccc(Br)cc3)c2)C1C(Br)C(Cl)(Cl)Br (stereo not drawn) [(1), m-(p-Bromophenoxy)-α-cyanobenzyl 2,2-dimethyl-3-(1,2-dibromo-2,2-dichloroethyl)cyclopropanecarboxylate] | 4 (≈ 6.11 µM) | 333 | 5.8 (≈ 8.85 µM) | the spreading of the damage could be prevented | no alive green rice leafhoppers were found | all the killifishes were alive | > 1 | 100 | 100 | 100 | – | –
CC1(C)[C@H](C(=O)OC(C#N)c2cccc(Oc3ccc(Br)cc3)c2)[C@@H]1C(Br)C(Cl)(Cl)Br (relative stereo) [(3), m-(p-Bromophenoxy)-α-cyanobenzyl dl-cis-2,2-dimethyl-3-(1,2-dibromo-2,2-dichloroethyl)cyclopropanecarboxylate] | – | – | – | – | – | – | > 1 | – | – | – | – | –
CC1(C)C(C(=O)OC(C#N)c2cccc(Oc3ccc(F)cc3)c2)C1C(Br)C(Cl)(Cl)Br (centres unmarked) [(B), reference compound] | 0.1 (≈ 0.168 µM) | 8 | 6.5 (≈ 10.9 µM) | – | – | – | 0.0028 (≈ 0.00471 µM) | – | – | – | – | –
CC1(C)C(C(=O)OC(C#N)c2cccc(Oc3ccc(Br)cc3)c2)C1C(Br)C(Br)(Br)Br (stereo not drawn) [(4), m-(p-Bromophenoxy)-α-cyanobenzyl 2,2-dimethyl-3-(1,2,2,2-tetrabromoethyl)cyclopropanecarboxylate] | > 10 | > 500 | 10 (≈ 13.4 µM) | – | no alive green rice leafhoppers were found | all the killifishes were alive | – | – | – | – | – | –
CNC(=O)Oc1ccc(C)c(C)c1 [MPMC, 3,4-Xylyl Nmethylcarbamate-, reference compound] | – | – | – | – | – | – | – | – | – | – | 100 | 0
